The values below come from patent US20250090557A1 (priority 2020, published 2025).

One series relates to TOM70. Kind of series: TOM70 protein levels in Calu3 cells (flow cytometry, immunofluorescence). The class given is cell-based, human. (In general: Flow cytometry measures light scatter and fluorescence of single cells or particles in a stream.)
The next series relates to cleaved caspase 3. The class given is cell-based, African green monkey. As to conditions: Vero.
Series [1] deals with IL-6. The class given is cell-based, African green monkey.
The next series deals with Calu3 cells. Nature of the series: Seahorse mitochondrial respirometry and cellular bioenergetics in infected Calu3 cells.
For another series, the system named is IL-1β. The series is classed as cell-based, human. Particulars: infected Calu3 supernatants.
For another series, the system named is IFN-β and IFN-λ. The class given is cell-based, human.
The conditions of series [2]: mice, tissues including liver and kidney, ≥10 days oral supplementation; cited from earlier work.
Series [3] relates to ACE2, CD147, NRP1 and TMPRSS2. Nature of the series: Host entry factor protein levels in Calu3 cells (flow cytometry). Particulars: Calu3, compared to uninfected cells, data not shown. The class given is cell-based, human.
The subject of series [4] is SARS-CoV-2. The series is classed as cell-based.
Another series concerns Keap1. Kind of series: Keap1 protein levels in Calu3 cells (flow cytometry). As to conditions: infected and uninfected Calu3, pretreatment, data not shown. The series is classed as cell-based, human.
For series [5] the following is noted: cited from earlier work.
The subject of the next series is Vero cells. Particulars: uninfected Vero cultures, 10-1000 nM.
In series [6] the test system is IL-6. The series is classed as cell-based, human.
Series [7] relates to SARS-CoV-2. Kind of series: SARS-CoV-2 infection of air-liquid interface human airway epithelium cultures (flow cytometry). The series is classed as cell-based. Particulars: 100 nM, 72 h.
A short description of series [8]: Toxicity and mutagenicity in mice. Particulars: mouse, in vivo.

Read-outs that look alike come from different tables or passages of the source.

`COC1=C(OC)C(=O)C(CCCCCCCCCC[P+](c2ccccc2)(c2ccccc2)c2ccccc2)=C(C)C1=O.CS(=O)(=O)[O-]` [Mito-MES, 10-(4,5-dimethoxy-2-methyl-3,6-dioxo-1,4-cyclohexadienyl) decyl triphenylphosphonium methanesulfonate]: in the series with TOM70, the “TOM70 protein levels (flow cytometry)” value was “increased TOM70 protein levels”. The “TOM70 protein levels (immunofluorescence)” value in the series with TOM70 is “dose-dependent increase in TOM70 protein levels”. Also, the “percent of infected cells positive for cleaved caspase 3 and MFI per cell (flow cytometry)” value in the series with cleaved caspase 3 (100 nM) is on record as “inhibits or reduces SARS-CoV-2-induced increase”. For the same compound, in the series with cleaved caspase 3 (10-1000 nM), the “SARS-CoV-2-induced cleavage of caspase 3 (immunofluorescence)” value was “reduced by Mito-MES treatment”. The “secretion of IL-6 resulting from SARS-CoV-2 infection (ELISA)” value with IL-6 [1] and in the series with IL-6 [6] was “attenuated the increase in secretion of IL-6” throughout. The ROS entry in the series on Calu3 cells (Calu3, 1000 nM) is given as “increased ROS”. Besides, the mitochondrial respirometry entry in the series with Calu3 cells (Calu3, 50-1000 nM) is on record as “reduced mitochondrial respirometry”. Moreover, in the series with IL-1β, the “secretion of IL-1β (Luminex)” value is on record as “tended (p=0.09) to reduce the secretion of IL-IP”. Also, the “total cellular IFN-β and IFN-λ protein levels (ELISA, lysates)” value with IFN-β and IFN-λ (infected Calu3, 100-1000 nM) was “independently confirmed”. The “secretion of IFN-β and IFN-λ (ELISA, supernatants)” value with IFN-β and IFN-λ (infected Calu3, 48 h post infection, 100-1000 nM) is “did not”. Besides, the accumulation in tissues in [2] was 50 to 700 pmol/g (wet weight). For the same compound, the “protein levels of ACE2, TMPRSS2, NRP1 and CD147” value in [3] is “Neither SARS-CoV-2 infection nor Mito-MES significantly modulates”. Besides, the “concentration at which potent antiviral activity is exhibited (immunofluorescence and PCR)” value in the series on SARS-CoV-2 [4] (Calu3) is listed as no more than 10 nM. Also, the “viral titers vs vehicle control (TCID50)” value in the series with SARS-CoV-2 [4] (Calu3, 10 nM Mito-MES alone) is “reduced viral titers”. In the series with SARS-CoV-2 [4] (Calu3, 100 nM and 1000 nM), the “reduction of release of progeny virus (TCID50 of cell supernatants)” value is on record as greater than 2 logs. The “protein levels of Keap” value in the series on Keap1 is on record as “reduced protein levels of Keap”. Also, the “average elevation of fasting plasma concentrations” value in series [5] (chronic supplementation about 40-80 mg/day, after about 10 days) was “about 5 ng/mL”. Further, the plasma concentration result in [5] (humans, single 40 mg oral dose, after 24 h) is recorded as “about 2 ng/ml”. For the same compound, the “cytotoxicity (XTT assay)” value in the series on Vero cells was “no observed cytotoxicity”. For the same compound, the “percent of SARS-CoV-2 infected FOXJ1+ ciliated epithelial cells (flow cytometry)” value with SARS-CoV-2 [7] (ALI HAE cultures) was “significantly reduced the percent of SARS-CoV-2 infected human FOXJ1^+ ciliated epithelial cells”. For the same compound, the “percent of SARS-CoV-2 infected human lung epithelial cells (flow cytometry)” value with SARS-CoV-2 [7] (primary HAE ALI cultures) is given as “significantly reduced the percent of SARS-CoV-2 infected human lung epithelial cells”. Besides, the “human equivalent dose relative to the doses administered to A1 and A2 (20 mg/day)” value in [8] is on record as “about 60 fold”.
